Reference: patent US20250177359A1, “COMPOUNDS FOR USE IN THE TREATMENT OF CANCER AND INFLAMMATORY CONDITIONS” (priority 2022, published 2025)
Like-named read-outs stand apart in the source and are kept apart here.

Target: T1, TNKS2 (Homo sapiens, UniProt Q9H2K2)
T1 sequence (Q9H2K2 1-1166): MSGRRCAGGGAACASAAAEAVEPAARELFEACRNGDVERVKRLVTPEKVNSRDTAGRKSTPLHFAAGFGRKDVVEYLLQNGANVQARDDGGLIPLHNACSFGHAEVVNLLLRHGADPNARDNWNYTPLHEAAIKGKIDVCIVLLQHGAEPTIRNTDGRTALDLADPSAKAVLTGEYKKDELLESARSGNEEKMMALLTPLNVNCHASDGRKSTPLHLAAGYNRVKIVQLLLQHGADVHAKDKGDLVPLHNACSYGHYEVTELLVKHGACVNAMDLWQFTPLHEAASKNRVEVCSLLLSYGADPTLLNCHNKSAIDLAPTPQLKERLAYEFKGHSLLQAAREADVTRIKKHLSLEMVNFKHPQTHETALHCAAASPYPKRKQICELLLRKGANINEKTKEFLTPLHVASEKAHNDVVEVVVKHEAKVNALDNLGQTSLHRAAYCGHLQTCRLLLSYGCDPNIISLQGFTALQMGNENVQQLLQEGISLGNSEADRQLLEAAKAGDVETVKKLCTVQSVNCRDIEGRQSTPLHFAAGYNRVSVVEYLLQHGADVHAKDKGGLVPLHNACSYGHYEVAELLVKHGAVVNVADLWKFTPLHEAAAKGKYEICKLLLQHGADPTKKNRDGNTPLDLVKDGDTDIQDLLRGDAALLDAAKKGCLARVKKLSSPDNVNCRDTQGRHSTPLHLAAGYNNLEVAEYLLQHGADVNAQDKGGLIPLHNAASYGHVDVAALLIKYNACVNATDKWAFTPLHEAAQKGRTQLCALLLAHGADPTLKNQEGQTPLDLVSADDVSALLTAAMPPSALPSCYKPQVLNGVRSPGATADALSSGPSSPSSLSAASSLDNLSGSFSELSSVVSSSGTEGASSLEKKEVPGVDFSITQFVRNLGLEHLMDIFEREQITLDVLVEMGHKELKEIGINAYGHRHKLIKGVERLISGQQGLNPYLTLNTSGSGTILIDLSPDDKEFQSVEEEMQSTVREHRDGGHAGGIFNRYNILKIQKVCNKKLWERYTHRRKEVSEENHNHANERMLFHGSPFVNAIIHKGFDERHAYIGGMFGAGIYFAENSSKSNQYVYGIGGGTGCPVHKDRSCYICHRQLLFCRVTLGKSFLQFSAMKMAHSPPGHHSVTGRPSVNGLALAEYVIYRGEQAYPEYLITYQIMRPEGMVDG
Test: biochemical
Protocol: All starting materials, reagents, and solvents were purchased from common commercial suppliers and were used as such without further purification. […] Organic solutions were dried over anhydrous Na2SO4 and concentrated with rotary evaporator at low pressure. All the reactions were routinely checked by thin-layer chromatography (TLC) on silica gel 60F254 (Merck) and visualized by using UV and iodine. Flash chromatography separations were carried out on Merck silica gel 60 (mesh 230-400) or by using automated Buchi Reveleris X2-UV with column FP Ecoflex Si 12 g. Yields were of purified products and were not optimized. ^1HNMR spectra were recorded at 400 MHz (Bruker Avance DRX-400), while ^13CNMR spectra were recorded at 101 MHz (Bruker Avance DRX-400). Chemical shifts are given in ppm (δ) relative to TMS. […] Mating constant (J) are reported in Hz. The purity of the tested compounds was evaluated by HPLC analysis using Jasco LC-4000 instrument equipped with a UV-Visible Diode Array Jasco-MD4015 (Jasco Corporation, Tokyo, Japan), and XTerra MS C18 column, 5 μm×4.6 mm×150 mm (Waters Corporation, Massachusetts, USA). Chromatograms were analyzed by ChromNAV2.0 Chromatography Data System software. […] The peak retention time (ret. time) is given in minutes. […] 1-Isobutoxy-4-methoxy-2-nitrobenzene (113). Isobutyl alcohol (0.6 mL, 6.43 mmol) was added, under nitrogen atmosphere at 0° C., to a suspension of NaH (0.26 g, 6.43 mmol) in dry DMF. After 15 minutes, 1-fluoro-4-methoxy-2-nitrobenzene 112 (1 g, 5.84 mmol) was also added and the reaction mixture was stirred at 80° C. for 4 h. […] (2-Isobutoxy-5-methoxyphenyl)amine (114). Zn (1.57 g, 24 mmol) and NH4C1 (2.45 g, 40 mmol) were added to a solution of 113 (0.46 g, 2 mmol) in acetone/H2O (50 mL, ratio 5:1). The reaction mixture was stirred at 60° C. for 3 h and, then, it was filtered over celite. […] N-(2,5-diethoxyphenyl)thiourea (55). […] N-(2-isobutoxy-5-methoxyphenyl)thiourea (115). […] A solution of Br2 (0.2 mL, 3.3 mmol) in CHCl3 (5 mL) was slowly added to a suspension of 45 (0.6 g, 3.3 mmol) in CHCl3 (13 mL), at 0° C. The reaction mixture was stirred at r.t. for 4 h and, then, a 10% solution of Na2SO3 in water was added to the mixture. […] 4,7-Diethoxy-1,3-benzothiazol-2-amine (66). […] 4-Isobutoxy-7-methoxy-1,3-benzothiazol-2-amine (116). […] Hydrazine hydrate (0.23 mL, 4.77 mmol) and CH3COOH (0.12 mL, 2.1 mmol) were added to a suspension of 56 (0.29 g, 1.59 mmol) in ethylene glycol (8 mL), and the reaction mixture was stirred for 24 h at 125° C. […] 6-Ethyl-2-hydrazino-1,3-benzothiazole (69). […] 6-Ispropyl-2-hydrazino-1,3-benzothiazole (70). […] 2-Hydrazino-4,7-dimethoxy-1,3-benzothiazole (73). […] 2-Hydrazino-5,7-dimethoxy-1,3-benzothiazole (75). […] 2-Hydrazino-4,7-Diethoxy-1,3-benzothiazole (77). […] 2-Hydrazino-5-methyl[1,3]thiazolo[5,4-b]pyridine (100). […] A solution of 67 (0.13 g, 0.65 mmol) in formic acid (5 mL) was refluxed for 10 h. The reaction mixture was then poured into ice/water and the pH was neutralized using a saturated solution of NaHCO3.

[1] = read-out: TNKS2 IC50, NAD+ consumption assay, > less than 50% inhibition at highest concentration, >> no inhibition

SMILES	IC50 [1]	also measured
Oc1ccc2c(c1)sc1nncn12 [Compound 10]		IC50 (read-out: TNKS2 IC50, NAD+ consumption assay): 0.37 µM
Cc1ccc2c(c1)sc1nnc(N)n12 [Compound 22, 7-Methyl[1,2,4]triazolo[3,4-b][1,3]benzothiazol-3-amine]	5.7 µM	
COc1ccc(OC)c2c1sc1nnc(N)n12 [Compound 28, 5,8-Dimethoxy[1,2,4]triazolo[3,4-b][1,3]benzothiazol-3-amine]	10 µM	
Nc1nnc2sc3cc(O)ccc3n12 [Compound 109, 3-Amino[1,2,4]triazolo[3,4-b][1,3]benzothiazol-7-ol]		IC50: ~0.2 µM
